Assay results from patent US20200022386A1, “METHOD OF PREPARATION OF CA[…]” (PHARCON INC., priority 2018, published 2020).
In brackets after ≈: the same amount, converted by molar mass.

Test: Solubility of cannabinoids / cannabis extract in ethanol
Assay type: physicochemical
Conditions: organic solvent or mixture, room temperature, ethyl alcohol (solvent named)
Source text: Cannabinoids have extremely low water solubility and relatively high solubility in oils and polar organic solvents such as ethanol and propylene glycol. Micro- and nanoemulsions or liposomal formulations where cannabinoids incorporated into lipid phase of the colloidal dispersion can be efficiently used for preparation of cannabis loaded products. Nevertheless, for preparation of beverages with high content of biologically active cannabis components may be complicated since solubility in the oil phase may not be high enough to provide the desired concentration of cannabinoids in the prepared beverage while keeping the product stable and palatable. Additionally, terpenes presented in extract of cannabis, visibly improve solubility of cannabinoids while pure CBD, THC or other cannabinoids have much lower solubility. […] However, since cannabis terpenes are often associated with acrid and unpleasant taste and flavor, it is preferable to use purified cannabinoids with a potency (purity) of 90-100%.
Practically all proposed SNEDS formulations of cannabinoids have oil phase consisting of food oils, mainly mono-di or triglycerides, such as medium chain triglycerides (MCT oil, coconut oil), fish oil, soy oil, olive oil, acetylated mono-and diglycerides, etc. The food oils have excellent safety profile and can provide a reasonable solubility of cannabinoids. […]

## C=C(C)[C@@H]1CCC(C)=C[C@H]1c1c(O)cc(CCCCC)cc1O [CBD, Cannabidiol]
  solubility: 25 to 36 mg/mL (≈ 79.5 to 114 mM)
